In PubChem BioAssay (NCI):
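The compound was tested at five concentrations on cells cultured in 96-well plates, with a 48-hour exposure period. GI50: concentration for 50% inhibition of growth. TGI marks complete inhibition of growth.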

Columns and labels:
Experiment in all cases: growth of human tumour cells (NCI), 48 h
[1] = test system: T-47D breast
[2] = test system: MCF7 breast
[3] = test system: UACC-62 melanoma
[4] = test system: U251 CNS
[5] = test system: NCI-H460 lung
[6] = test system: 786-0 renal
[7] = test system: OVCAR-3 ovarian
[8] = test system: UACC-257 melanoma
[9] = test system: HCC-2998 colon
[10] = test system: IGROV1 ovarian
[11] = test system: COLO 205 colon
[12] = test system: K-562 leukemia
[13] = test system: NCI/ADR-RES ovarian
[14] = test system: HCT-116 colon
[15] = test system: A498 renal
[16] = test system: SF-539 CNS
[17] = test system: SN12C renal
[18] = test system: MOLT-4 leukemia
[19] = test system: SK-MEL-5 melanoma
[20] = test system: UO-31 renal
[21] = test system: MALME-3M melanoma
[22] = test system: SK-OV-3 ovarian
[23] = test system: OVCAR-8 ovarian
[24] = test system: SNB-75 CNS
[25] = test system: SF-295 CNS
[26] = test system: NCI-H522 lung
[27] = test system: SF-268 CNS
[28] = test system: SK-MEL-2 melanoma
[29] = test system: ACHN renal
[30] = test system: SR leukemia
[31] = test system: HOP-62 NSCLC
[32] = test system: NCI-H226 lung
[33] = test system: M14 melanoma
[34] = test system: A549 NSCLC
[35] = test system: EKVX NSCLC
[36] = test system: KM12 colon
[37] = test system: RXF 393 renal
[38] = test system: HT29 colon
[39] = test system: SW-620 colon
[40] = test system: BT-549 breast
[41] = test system: HL-60(TB) leukemia
[42] = test system: NCI-H23 lung
[43] = test system: CAKI-1 renal
[44] = test system: OVCAR-4 ovarian
[45] = test system: MDA-MB-435
[46] = test system: PC-3 prostate
[47] = test system: OVCAR-5 ovarian
[48] = test system: MDA-MB-231 breast
[49] = test system: HOP-92 NSCLC
[50] = test system: TK-10 renal
[51] = test system: HS 578T breast
[52] = test system: HCT-15 colon
[53] = test system: SNB-19 CNS
[54] = test system: SK-MEL-28 melanoma
[55] = test system: LOX IMVI melanoma
[56] = test system: DU-145 prostate
[57] = test system: CCRF-CEM leukemia

`CC(C)(O)c1ccc(N2CCN(c3nnc(Cc4ccccc4)c4ccccc34)CC2)nc1` was tested, and the GI50 [1] was 2.71 µM, the TGI [1] was 14.6 µM and the GI50 [2] was 7.05 µM. For the same compound, the TGI [2] was 21.7 µM, the GI50 [3] was 8.44 µM and the TGI [3] was 21.9 µM. It also gave a GI50 [4] of 13.2 µM, a TGI [4] of 37.3 µM and a GI50 [5] of 9.83 µM. It also gave a TGI [5] of 34.3 µM, a GI50 [6] of 14.6 µM and a TGI [6] of 45.7 µM. It also gave a GI50 [7] of 10.4 µM, a TGI [7] of 47.5 µM and a GI50 [8] of 8.59 µM. The TGI [8] was 21.7 µM, the GI50 [9] was 14 µM and the TGI [9] was 27.8 µM. The GI50 [10] was 12.1 µM, the TGI [10] was 28.4 µM and the GI50 [11] was 5.41 µM. It also gave a TGI [11] of 16 µM, a GI50 [12] of 4.81 µM and a TGI [12] of over 72.9 µM. The GI50 [13] was 4.09 µM, the TGI [13] was 46.8 µM and the GI50 [14] was 8.25 µM. The TGI [14] was 54.1 µM, the GI50 [15] was 13.9 µM and the TGI [15] was 42.5 µM. For the same compound, the GI50 [16] was 12.7 µM, the TGI [16] was 29.2 µM and the GI50 [17] was 7.32 µM. For the same compound, the TGI [17] was 33 µM, the GI50 [18] was 5.4 µM and the TGI [18] was 25.7 µM. The GI50 [19] was 2.84 µM, the TGI [19] was 8.64 µM and the GI50 [20] was 3.49 µM. The TGI [20] was 19.5 µM, the GI50 [21] was 5.28 µM and the TGI [21] was 17.9 µM. The GI50 [22] was 18.7 µM, the TGI [22] was 61.9 µM and the GI50 [23] was 8.01 µM. The TGI [23] was 42.5 µM, the GI50 [24] was 9.74 µM and the TGI [24] was 24.5 µM. For the same compound, the GI50 [25] was 4.16 µM, the TGI [25] was 16.7 µM and the GI50 [26] was 6.32 µM. For the same compound, the TGI [26] was 20.7 µM, the GI50 [27] was 13.8 µM and the TGI [27] was 33.5 µM. The GI50 [28] was 9.57 µM, the TGI [28] was 26.2 µM and the GI50 [29] was 11.3 µM. For the same compound, the TGI [29] was 47.7 µM, the GI50 [30] was 18.6 µM and the TGI [30] was over 100 µM. For the same compound, the GI50 [31] was 13.7 µM, the TGI [31] was 28.6 µM and the GI50 [32] was 5.76 µM. It also gave a TGI [32] of 22.4 µM, a GI50 [33] of 8.86 µM and a TGI [33] of 23 µM. The GI50 [34] was 6.98 µM, the TGI [34] was 25.1 µM and the GI50 [35] was 4 µM. The TGI [35] was 19.8 µM, the GI50 [36] was 13.2 µM and the TGI [36] was 29.5 µM. For the same compound, the GI50 [37] was 6.76 µM, the TGI [37] was 23.6 µM and the GI50 [38] was 12 µM. It also gave a TGI [38] of 37.7 µM, a GI50 [39] of 17.1 µM and a TGI [39] of 38.5 µM. It also gave a GI50 [40] of 6.28 µM, a TGI [40] of 24 µM and a GI50 [41] of 7.44 µM. The TGI [41] was 31.1 µM, the GI50 [42] was 5.68 µM and the TGI [42] was 28.4 µM. For the same compound, the GI50 [43] was 11.3 µM, the TGI [43] was 30.9 µM and the GI50 [44] was 3.99 µM. The TGI [44] was 26.3 µM, the GI50 [45] was 10 µM and the TGI [45] was 22.8 µM. The GI50 [46] was 10.7 µM, the TGI [46] was over 56.5 µM and the GI50 [47] was 17.2 µM. For the same compound, the TGI [47] was 38.9 µM, the GI50 [48] was 5.95 µM and the TGI [48] was 32.2 µM. For the same compound, the GI50 [49] was 7.74 µM, the TGI [49] was 38.7 µM and the GI50 [50] was 13.4 µM. The TGI [50] was 38.1 µM, the GI50 [51] was 15.3 µM and the TGI [51] was 41.4 µM. The GI50 [52] was 8.31 µM, the TGI [52] was 28.7 µM and the GI50 [53] was 15.8 µM. It also gave a TGI [53] of 67.1 µM, a GI50 [54] of 12 µM and a TGI [54] of 24.9 µM. For the same compound, the GI50 [55] was 14 µM, the TGI [55] was 35.5 µM and the GI50 [56] was 12.1 µM. It also gave a TGI [56] of 34.8 µM, a GI50 [57] of 8.26 µM and a TGI [57] of over 93 µM.
